Columns and labels:
[1] = acceleration test (stability); format: physicochemical; details: 40° C.±2° C., relative humidity 75%±5%
Description: (§1) Stability tests were performed on the samples of Examples 1, 2, 3, 4 and 5. […] Please refer to the results of the acceleration test (40° C.±2° C., relative humidity 75%±5%) of Table 1 and the results of the long-term stability test (25° C.±2° C., relative humidity 60%±10%) of Table 2.

long-term stability test = format: physicochemical; details: 25° C.±2° C., relative humidity 60%±10%
Description: as §1

Substance: (S)-2-(4-fluorophenyl)-4-(piperidine-3-aminomethyl)thieno[2,3-d]pyridazine-7-carboxamide hydrochloride [Example 110601-2]
- (%) Impurity B (%) ([1]; 0 month): 0.00%
- Crystal form ([1]; 0 month): unchanged
- appearance ([1]; 0 month): yellow crystalline powder
- Enantiomer (%) ([1]; 0 month, hydrochloride): 0.09%
- Impurity A (%) ([1]; 0 month, hydrochloride): 0.32%
- Impurity C (%) ([1]; 0 month, hydrochloride): 0.02%
- Loss on drying (%) ([1]; 0 month, hydrochloride): 7.3%
- Single largest impurity (%) ([1]; 0 month, hydrochloride): 0.02%
- Total relevant substances (%) ([1]; 0 month, hydrochloride): 0.42%
- content(%) ([1]; 0 month, hydrochloride): 98.7%
- Crystal form ([1]; 1 month): unchanged
- Impurity C (%) ([1]; 1 month): 0.02%
- appearance ([1]; 1 month): yellow crystalline powder
- (%) Impurity B (%) ([1]; 1 month, hydrochloride): 0.03%
- Enantiomer (%) ([1]; 1 month, hydrochloride): 0.12%
- Impurity A (%) ([1]; 1 month, hydrochloride): 0.28%
- Loss on drying (%) ([1]; 1 month, hydrochloride): 7.3%
- Single largest impurity (%) ([1]; 1 month, hydrochloride): 0.03%
- Total relevant substances (%) ([1]; 1 month, hydrochloride): 0.42%
- content(%) ([1]; 1 month, hydrochloride): 99.5%
- Crystal form ([1]; 2 months): unchanged
- appearance ([1]; 2 months): yellow crystalline powder
- (%) Impurity B (%) ([1]; 2 months, hydrochloride): 0.04%
- Enantiomer (%) ([1]; 2 months, hydrochloride): 0.1%
- Impurity A (%) ([1]; 2 months, hydrochloride): 0.31%
- Impurity C (%) ([1]; 2 months, hydrochloride): 0.03%
- Loss on drying (%) ([1]; 2 months, hydrochloride): 7.2%
- Single largest impurity (%) ([1]; 2 months, hydrochloride): 0.02%
- Total relevant substances (%) ([1]; 2 months, hydrochloride): 0.44%
- content(%) ([1]; 2 months, hydrochloride): 99.1%
- (%) Impurity B (%) ([1]; 3 months): 0.00%
- Crystal form ([1]; 3 months): unchanged
- Impurity C (%) ([1]; 3 months): 0.02%
- appearance ([1]; 3 months): yellow crystalline powder
- Enantiomer (%) ([1]; 3 months, hydrochloride): 0.09%
- Impurity A (%) ([1]; 3 months, hydrochloride): 0.25%
- Loss on drying (%) ([1]; 3 months, hydrochloride): 7.3%
- Single largest impurity (%) ([1]; 3 months, hydrochloride): 0.02%
- Total relevant substances (%) ([1]; 3 months, hydrochloride): 0.34%
- content(%) ([1]; 3 months, hydrochloride): 99.9%
- (%) Impurity B (%) ([1]; 6 months): 0.00%
- Crystal form ([1]; 6 months): unchanged
- Impurity C (%) ([1]; 6 months): 0.02%
- appearance ([1]; 6 months): yellow crystalline powder
- Enantiomer (%) ([1]; 6 months, hydrochloride): 0.07%
- Impurity A (%) ([1]; 6 months, hydrochloride): 0.25%
- Loss on drying (%) ([1]; 6 months, hydrochloride): 7.2%
- Single largest impurity (%) ([1]; 6 months, hydrochloride): 0.02%
- Total relevant substances (%) ([1]; 6 months, hydrochloride): 0.33%
- content(%) ([1]; 6 months, hydrochloride): 100.1%
- Crystal form (long-term stability test; 0 month): unchanged
- ImpurityB(%) (long-term stability test; 0 month): 0.00%
- Content (calculated by dried product )(%) (long-term stability test; 0 month, hydrochloride): 98.7%
- Enantiomers (%) (long-term stability test; 0 month, hydrochloride): 0.09%
- ImpurityA(%) (long-term stability test; 0 month, hydrochloride): 0.32%
- ImpurityC(%) (long-term stability test; 0 month, hydrochloride): 0.02%
- Loss on drying (%) (long-term stability test; 0 month, hydrochloride): 7.3%
- Single largest impurity (%) (long-term stability test; 0 month, hydrochloride): 0.02%
- Total relevant substances (%) (long-term stability test; 0 month, hydrochloride): 0.42%
- appearance (long-term stability test; 0 month, hydrochloride): yellow crystalline
- Crystal form (long-term stability test; 3 months): unchanged
- ImpurityB(%) (long-term stability test; 3 months): 0.00%
- ImpurityC(%) (long-term stability test; 3 months): 0.02%
- Content (calculated by dried product )(%) (long-term stability test; 3 months, hydrochloride): 99.8%
- Enantiomers (%) (long-term stability test; 3 months, hydrochloride): 0.09%
- ImpurityA(%) (long-term stability test; 3 months, hydrochloride): 0.30%
- Loss on drying (%) (long-term stability test; 3 months, hydrochloride): 7.3%
- Single largest impurity (%) (long-term stability test; 3 months, hydrochloride): 0.03%
- Total relevant substances (%) (long-term stability test; 3 months, hydrochloride): 0.39%
- appearance (long-term stability test; 3 months, hydrochloride): yellow crystalline
- Crystal form (long-term stability test; 6 months): unchanged
- ImpurityB(%) (long-term stability test; 6 months): 0.00%
- Content (calculated by dried product )(%) (long-term stability test; 6 months, hydrochloride): 99.7%
- Enantiomers (%) (long-term stability test; 6 months, hydrochloride): 0.07%
- ImpurityA(%) (long-term stability test; 6 months, hydrochloride): 0.25%
- ImpurityC(%) (long-term stability test; 6 months, hydrochloride): 0.02%
- Loss on drying (%) (long-term stability test; 6 months, hydrochloride): 7.2%
- Single largest impurity (%) (long-term stability test; 6 months, hydrochloride): 0.02%
- Total relevant substances (%) (long-term stability test; 6 months, hydrochloride): 0.34%
- appearance (long-term stability test; 6 months, hydrochloride): yellow crystalline
- Crystal form (long-term stability test; 9 months): unchanged
- ImpurityC(%) (long-term stability test; 9 months): 0.02%
- Content (calculated by dried product )(%) (long-term stability test; 9 months, hydrochloride): 99.6%
- Enantiomers (%) (long-term stability test; 9 months, hydrochloride): 0.08%
- ImpurityA(%) (long-term stability test; 9 months, hydrochloride): 0.27%
- ImpurityB(%) (long-term stability test; 9 months, hydrochloride): 0.02%
- Loss on drying (%) (long-term stability test; 9 months, hydrochloride): 7.3%
- Single largest impurity (%) (long-term stability test; 9 months, hydrochloride): 0.02%
- Total relevant substances (%) (long-term stability test; 9 months, hydrochloride): 0.38%
- appearance (long-term stability test; 9 months, hydrochloride): yellow crystalline
- Crystal form (long-term stability test; 12 months): unchanged
- ImpurityB(%) (long-term stability test; 12 months): 0.01%
- Single largest impurity (%) (long-term stability test; 12 months): 0.02%
- Content (calculated by dried product )(%) (long-term stability test; 12 months, hydrochloride): 99.7%
- Enantiomers (%) (long-term stability test; 12 months, hydrochloride): 0.07%
- ImpurityA(%) (long-term stability test; 12 months, hydrochloride): 0.26%
- ImpurityC(%) (long-term stability test; 12 months, hydrochloride): 0.03%
- Loss on drying (%) (long-term stability test; 12 months, hydrochloride): 7.4%
- Total relevant substances (%) (long-term stability test; 12 months, hydrochloride): 0.36%
- appearance (long-term stability test; 12 months, hydrochloride): yellow crystalline
- Crystal form (long-term stability test; 18 months): unchanged
- ImpurityB(%) (long-term stability test; 18 months): 0.00%
- Single largest impurity (%) (long-term stability test; 18 months): 0.02%
- Content (calculated by dried product )(%) (long-term stability test; 18 months, hydrochloride): 100.7%
- Enantiomers (%) (long-term stability test; 18 months, hydrochloride): 0.07%
- ImpurityA(%) (long-term stability test; 18 months, hydrochloride): 0.30%
- ImpurityC(%) (long-term stability test; 18 months, hydrochloride): 0.02%
- Loss on drying (%) (long-term stability test; 18 months, hydrochloride): 7.2%
- Total relevant substances (%) (long-term stability test; 18 months, hydrochloride): 0.36%
- appearance (long-term stability test; 18 months, hydrochloride): yellow crystalline
- Crystal form (long-term stability test; 24 months): unchanged
- Enantiomers (%) (long-term stability test; 24 months): 0.08%
- ImpurityB(%) (long-term stability test; 24 months): 0.00%
- ImpurityC(%) (long-term stability test; 24 months): 0.02%
- Single largest impurity (%) (long-term stability test; 24 months): 0.02%
- Content (calculated by dried product )(%) (long-term stability test; 24 months, hydrochloride): 99.1%
- ImpurityA(%) (long-term stability test; 24 months, hydrochloride): 0.30%
- Loss on drying (%) (long-term stability test; 24 months, hydrochloride): 7.2%
- Total relevant substances (%) (long-term stability test; 24 months, hydrochloride): 0.37%
- appearance (long-term stability test; 24 months, hydrochloride): yellow crystalline
- Crystal form (long-term stability test; 36 months): unchanged
- ImpurityC(%) (long-term stability test; 36 months): 0.02%
- Single largest impurity (%) (long-term stability test; 36 months): 0.02%
- Content (calculated by dried product )(%) (long-term stability test; 36 months, hydrochloride): 99.5%
- Enantiomers (%) (long-term stability test; 36 months, hydrochloride): 0.06%
- ImpurityA(%) (long-term stability test; 36 months, hydrochloride): 0.31%
- ImpurityB(%) (long-term stability test; 36 months, hydrochloride): 0.02%
- Loss on drying (%) (long-term stability test; 36 months, hydrochloride): 7.2%
- Total relevant substances (%) (long-term stability test; 36 months, hydrochloride): 0.43%
- appearance (long-term stability test; 36 months, hydrochloride): yellow crystalline
